Source: patent publication EP1247803A2, “Indolinone compounds suitable for modulation of protein kinases” (Sugen, Inc., priority 1996, dated 1998)

Experiments:
PDGF-R = PDGF-R (Homo sapiens, UniProt P09619); assay: PDGF-R ELISA; format: cell-based
Description: A PDGF-R ELISA is described in International Patent Publication No. WO 96/40116, published December 19, 1996 by Tang et al.

FLK-1 receptor = target: T1, FLK-1 receptor (Mus musculus, UniProt P35918); assay: FLK-1 ELISA (kinase activity of the FLK-1 receptor in FLK-1/NIH3T3 cells, VEGF stimulated); format: cell-based; parameters: concentration or dose not given beside the values
T1 construct: expressed in transfected cells; host or cells: NIH3T3 C7#3
T1 sequence (P35918 20-1345): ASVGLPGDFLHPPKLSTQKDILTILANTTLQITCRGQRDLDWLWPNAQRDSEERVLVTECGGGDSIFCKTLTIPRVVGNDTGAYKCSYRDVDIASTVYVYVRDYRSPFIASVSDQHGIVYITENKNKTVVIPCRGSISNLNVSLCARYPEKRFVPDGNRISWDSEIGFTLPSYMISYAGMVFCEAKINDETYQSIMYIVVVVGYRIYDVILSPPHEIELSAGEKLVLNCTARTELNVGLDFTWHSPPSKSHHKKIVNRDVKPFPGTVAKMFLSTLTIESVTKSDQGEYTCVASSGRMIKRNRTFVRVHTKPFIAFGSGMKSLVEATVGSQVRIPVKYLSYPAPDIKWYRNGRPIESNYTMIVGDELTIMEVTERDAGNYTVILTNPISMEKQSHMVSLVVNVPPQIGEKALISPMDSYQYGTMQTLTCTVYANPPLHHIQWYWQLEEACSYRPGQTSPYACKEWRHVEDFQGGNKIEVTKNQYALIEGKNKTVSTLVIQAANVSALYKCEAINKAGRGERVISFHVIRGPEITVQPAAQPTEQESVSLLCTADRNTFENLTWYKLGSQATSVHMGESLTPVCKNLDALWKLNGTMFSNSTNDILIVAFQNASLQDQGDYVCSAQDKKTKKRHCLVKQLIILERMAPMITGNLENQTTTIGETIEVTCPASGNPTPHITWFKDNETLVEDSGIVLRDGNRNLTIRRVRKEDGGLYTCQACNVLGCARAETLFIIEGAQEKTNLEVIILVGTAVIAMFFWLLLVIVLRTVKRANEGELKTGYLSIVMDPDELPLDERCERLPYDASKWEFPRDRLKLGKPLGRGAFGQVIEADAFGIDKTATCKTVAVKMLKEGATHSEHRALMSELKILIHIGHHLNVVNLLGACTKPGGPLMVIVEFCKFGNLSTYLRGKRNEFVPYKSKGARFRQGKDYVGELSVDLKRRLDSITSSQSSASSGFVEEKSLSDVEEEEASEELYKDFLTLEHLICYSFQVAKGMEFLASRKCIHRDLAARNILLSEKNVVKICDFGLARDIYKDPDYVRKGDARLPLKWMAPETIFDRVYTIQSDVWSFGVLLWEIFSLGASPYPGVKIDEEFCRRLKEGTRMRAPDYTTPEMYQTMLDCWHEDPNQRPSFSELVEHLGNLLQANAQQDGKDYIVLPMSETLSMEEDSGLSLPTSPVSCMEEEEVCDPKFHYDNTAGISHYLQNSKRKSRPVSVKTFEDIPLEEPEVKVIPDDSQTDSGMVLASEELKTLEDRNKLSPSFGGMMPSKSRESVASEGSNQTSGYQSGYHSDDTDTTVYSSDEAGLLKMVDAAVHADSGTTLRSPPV
How it was run: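 NIH3T3 C7#3 cells expressing FLK-1 were seeded at 25.000 cells/well, serum-starved overnight in 0.1% FBS, then treated with compound for two hours at 37°C (final DMSO 0.5%) before VEGF stimulation. Receptor was captured on anti-rabbit IgG-coated ELISA plates bearing affinity-purified anti-FLK-1 antiserum.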

MET = MET biochemical kinase assay; parameters: species or system human; concentration or dose not given beside the values
How it was run: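 Plates coated with anti-rabbit Fc bind a rabbit anti-MET antibody that captures receptor from cell lysates; unbound protein is washed off before compound and ATP-containing kinase buffer go in.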

Chain of PDGF-R (P09619 33-1106, species assumed): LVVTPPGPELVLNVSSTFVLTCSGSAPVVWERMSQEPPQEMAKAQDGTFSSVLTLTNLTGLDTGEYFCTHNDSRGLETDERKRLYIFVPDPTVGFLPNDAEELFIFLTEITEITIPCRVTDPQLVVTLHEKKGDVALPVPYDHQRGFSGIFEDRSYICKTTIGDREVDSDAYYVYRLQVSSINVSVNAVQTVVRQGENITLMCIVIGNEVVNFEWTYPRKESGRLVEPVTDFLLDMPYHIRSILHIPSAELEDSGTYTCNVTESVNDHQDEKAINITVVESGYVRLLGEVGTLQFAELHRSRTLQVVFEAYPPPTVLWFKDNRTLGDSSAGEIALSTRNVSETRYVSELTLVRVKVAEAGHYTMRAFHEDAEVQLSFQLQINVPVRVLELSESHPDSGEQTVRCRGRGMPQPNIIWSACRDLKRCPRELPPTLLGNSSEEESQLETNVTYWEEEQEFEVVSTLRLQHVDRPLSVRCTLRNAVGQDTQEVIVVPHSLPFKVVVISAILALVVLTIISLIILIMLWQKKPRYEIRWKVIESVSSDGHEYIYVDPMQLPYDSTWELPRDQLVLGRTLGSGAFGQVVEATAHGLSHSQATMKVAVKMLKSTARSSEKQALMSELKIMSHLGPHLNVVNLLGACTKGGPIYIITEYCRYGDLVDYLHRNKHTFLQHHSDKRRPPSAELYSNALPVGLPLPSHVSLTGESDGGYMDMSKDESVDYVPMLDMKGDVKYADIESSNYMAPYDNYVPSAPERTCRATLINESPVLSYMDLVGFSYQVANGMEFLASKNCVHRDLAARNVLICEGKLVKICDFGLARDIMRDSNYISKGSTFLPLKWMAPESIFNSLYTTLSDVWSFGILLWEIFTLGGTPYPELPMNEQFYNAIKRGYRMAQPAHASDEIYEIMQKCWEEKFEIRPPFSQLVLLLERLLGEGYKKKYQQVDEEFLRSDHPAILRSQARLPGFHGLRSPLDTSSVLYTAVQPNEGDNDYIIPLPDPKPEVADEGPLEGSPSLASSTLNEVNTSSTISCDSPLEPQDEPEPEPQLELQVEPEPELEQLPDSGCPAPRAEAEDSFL

Row | Structure (SMILES) | PDGF Kinase %Inhibition (PDGF-R) [%] | Fik Kinase %Inhibition (FLK-1 receptor) [%] | Met Kinase % Inhibition (MET) [%]
1 | COc1cc(C=C2C(=O)Nc3c(Br)cc(Br)cc32)cc(OC)c1OC [10730/A04] | -5.1 | -9.9 | 70.6
2 | O=C1Nc2c(Br)cc(Br)cc2C1=Cc1ccc(-c2ccccc2Cl)o1 [10730/A07] | -23.9 | -18.9 | 55.4
3 | Cc1cc(C=C2C(=O)Nc3ccc(I)cc32)oc1C [10730/B11] | -13.9 | 1.9 | 81.7
4 | Cc1cc(C=C2C(=O)Nc3ccc(S(=O)(=O)Nc4ccc(C(F)(F)F)cc4)cc32)oc1C [10730/E11] | 31.7 | 29.1 | 77.2
5 | COc1cc(OC)c(OC)cc1C=C1C(=O)Nc2ccc(Br)c(C)c21 [10730/C03] | 36.5 | 25.5 | 43.2
6 | COC1CC(C=C2C(=O)Nc3ccc(Br)c(C)c32)C(OC)O1 (stereo not drawn) [10730/C10] | 44.4 | 15.4 | 40.3
7 | COc1ccc2ccccc2c1C=C1C(=O)Nc2ccc(CCCl)cc21 [10729/G02] | 16.7 | 18.8 | 31.3
8 | CNS(=O)(=O)c1ccc2c(c1)C(=Cc1cc(OC)c(OC)c(OC)c1)C(=O)N2 [10730/D04] | 20.8 | 9.1 | 33.6
9 | COc1cc(C=C2C(=O)Nc3ccc(S(=O)(=O)Nc4ccc(C(F)(F)F)cc4)cc32)cc(OC)c1OC [10730/E04] | 18.6 | 22.1 | 35.2
10 | COc1cc(C=C2C(=O)Nc3ccc(I)cc32)cc(OC)c1OC [10730/B04] | 7.2 | 12.8 | 73.2
11 | Cc1c(Br)ccc2c1C(=Cc1ccc(-c3ccccc3Cl)o1)C(=O)N2 [10730/C07] | 1.0 | 7.3 | 37.4
12 | CNS(=O)(=O)c1ccc2c(c1)C(=Cc1cc3ccccc3nc1Cl)C(=O)N2 [10730/D08] | 12.9 | 8.6 | -13.6
13 | COC1CC(C=C2C(=O)Nc3c(Br)cc(Br)cc32)C(OC)O1 (stereo not drawn) [10730/A10] | 1.0 | 0.5 | 68.7
14 | O=C1Nc2ccc(CCCl)cc2C1=Cc1cccnc1 [10729/G08] | 0.8 | -1.0 | 39.9
15 | CNS(=O)(=O)c1ccc2c(c1)C(=Cc1ccc(-c3ccccc3Cl)o1)C(=O)N2 [10730/D07] | 5.0 | 8.8 | 52.5
16 | COc1ccc(C=C2C(=O)Nc3ccc(CCCl)cc32)c2ccccc12 [10729/G03] | 13.7 | 10.4 | 20.1
17 | O=C1Nc2ccc(CCCl)cc2C1=Cc1ccccn1 [10729/G07] | 14.4 | -2.5 | 38.2
18 | CC(=O)n1cc(C=C2C(=O)Nc3ccc(Br)c(C)c32)c2ccccc21 [10730/C05] | 8.5 | 11.4 | 46.1
19 | COc1ccc(C=C2C(=O)Nc3ccc(I)cc32)c(OC)c1OC [10730/B02] | 5.4 | 5.0 | 66.3
20 | CC(=O)n1cc(C=C2C(=O)Nc3c(Br)cc(Br)cc32)c2ccccc21 [10730/A05] | 2.8 | -10.8 | 42.7

Row | Structure (SMILES) | PDGF Kinase %Inhibition (PDGF-R) [%] | Fik Kinase %Inhibition (FLK-1 receptor) [%] | Met Kinase % Inhibition (MET) [%]
21 | O=C1Nc2ccc(CCCl)cc2C1=Cc1ccc(N2CCCC2)cc1 [10729/G10] | -13.2 | -9.1 | 26.7
22 | Cc1cc(C=C2C(=O)Nc3c(Br)cc(Br)cc32)oc1C [10730/A11] | -6.4 | 6.8 | 91.0
23 | O=C1Nc2ccc(CCCl)cc2C1=CC1C=CCCC1 (stereo not drawn) [10729/G11] | 3.8 | -0.5 | 15.4
24 | COc1cc(OC)c(OC)cc1C=C1C(=O)Nc2ccc(S(=O)(=O)N3CCOCC3)cc21 [10730/F03] | 1.5 | 11.7 | -0.6
25 | COc1ccc(C=C2C(=O)Nc3ccc(Br)c(C)c32)c(OC)c1OC [10730/C02] | 26.5 | 48.8 | 31.2
26 | O=C1Nc2ccc(S(=O)(=O)N3CCOCC3)cc2C1=Cc1cc2ccccc2nc1Cl [10730/F08] | -0.3 | 2.1 | 46.4
27 | COc1cc(OC)c(OC)cc1C=C1C(=O)Nc2ccc(I)cc21 [10730/B03] | 17.3 | -0.5 | 78.3
28 | O=C1Nc2ccc(I)cc2C1=Cc1ccc(-c2ccccc2Cl)o1 [10730/B07] | 2.4 | 0.6 | 63.1
29 | CC(=O)n1cc(C=C2C(=O)Nc3ccc(S(=O)(=O)Nc4ccc(C(F)(F)F)cc4)cc32)c2ccccc21 [10730/E05] | 28.7 | 8.7 | 49.0
30 | Cc1ccsc1C=C1C(=O)Nc2ccc(CCCl)cc21 [10729/G05] | 9.9 | 8.7 | 22.6
31 | O=C1Nc2ccc(S(=O)(=O)Nc3ccc(C(F)(F)F)cc3)cc2C1=Cc1coc2ccc(Cl)cc2c1=O [10730/E06] | 26.0 | 11.1 | 52.8
32 | CC(=O)n1cc(C=C2C(=O)Nc3ccc(S(=O)(=O)N4CCOCC4)cc32)c2ccccc21 [10730/F05] | 19.5 | 19.6 | 23.5
33 | O=C1Nc2ccc(S(=O)(=O)Nc3ccc(C(F)(F)F)cc3)cc2C1=Cc1coc2c(Br)cc(Br)cc2c1=O [10730/E09] | 20.3 | 21.8 | 33.9
34 | O=C1Nc2ccc(CCCl)cc2C1=Cc1cccc(Oc2ccccc2)c1 [10729/G06] | 11.8 | 10.9 | 26.0
35 | COc1cc(C=C2C(=O)Nc3ccc(Br)c(C)c32)cc(OC)c1OC [10730/C04] | 15.5 | 46.1 | 43.2
36 | O=C1Nc2c(Br)cc(Br)cc2C1=Cc1coc2ccc(Cl)cc2c1=O [10730/A06] | 6.3 | -7.0 | 61.0
37 | Cc1c(Br)ccc2c1C(=Cc1coc3ccc(Cl)cc3c1=O)C(=O)N2 [10730/C06] | 7.6 | 5.3 | 34.7
38 | CNS(=O)(=O)c1ccc2c(c1)C(=Cc1cn(C(C)=O)c3ccccc13)C(=O)N2 [10730/D05] | -1.6 | 11.9 | 38.1
39 | CNS(=O)(=O)c1ccc2c(c1)C(=Cc1coc3ccc(Cl)cc3c1=O)C(=O)N2 [10730/D06] | -2.0 | 5.8 | 55.9
